# Laboratory results from ChEMBL document CHEMBL5729461, “CDPK1 inhibitors, compositions, and methods related thereto” (2022).
# Molecular target: T1, Calmodulin-domain protein kinase 1 (Toxoplasma gondii, UniProt Q9BJF5)
# T1 sequence (Q9BJF5 whole entry): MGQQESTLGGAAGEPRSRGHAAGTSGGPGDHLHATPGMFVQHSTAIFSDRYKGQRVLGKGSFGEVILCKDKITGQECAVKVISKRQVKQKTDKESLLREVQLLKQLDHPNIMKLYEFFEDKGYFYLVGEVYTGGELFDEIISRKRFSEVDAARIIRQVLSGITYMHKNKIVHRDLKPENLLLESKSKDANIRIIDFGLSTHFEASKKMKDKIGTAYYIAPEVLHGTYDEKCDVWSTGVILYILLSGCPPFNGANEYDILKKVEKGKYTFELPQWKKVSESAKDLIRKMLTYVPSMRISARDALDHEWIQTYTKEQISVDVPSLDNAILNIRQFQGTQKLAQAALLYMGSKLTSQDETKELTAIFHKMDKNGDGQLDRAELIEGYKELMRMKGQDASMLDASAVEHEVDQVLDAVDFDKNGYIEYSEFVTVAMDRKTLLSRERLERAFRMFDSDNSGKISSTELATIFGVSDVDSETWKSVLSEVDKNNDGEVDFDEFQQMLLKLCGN
# Assay: Inhibition Assay: Certain of the compounds prepared as described above were assayed to determine their IC50 for inhibition of T. gondii CDPK1 (tgCDPK1). At least three independent replicates of the assay were conducted for each compound tested.
row,SMILES,IC50 [nM]
1,Nc1ncnc2c1c(Cc1cccc(Cl)c1)nn2[C@H]1C[C@H](O)C1,8.87
2,Nc1ncnc2c1c(Cc1cccc(C(F)(F)F)c1)nn2[C@H]1C[C@H](O)C1,36
3,Nc1ncnc2c1c(Cc1cccc(F)c1)nn2[C@H]1C[C@H](O)C1,28.3
4,Nc1ncnc2c1c(Cc1cccc(Cl)c1)nn2[C@H]1C[C@@H](F)C1,7.05
5,NC(=O)c1ccnc(Oc2nn([C@H]3C[C@H](F)C3)c3ncnc(N)c23)c1,69.7
6,N#Cc1cccc(Cc2nn([C@H]3C[C@H](F)C3)c3ncnc(N)c23)c1,45.9
7,Nc1ncnc2c1c(Cc1cccc(F)c1)cn2[C@H]1C[C@H](O)C1,28.3
8,COc1ccnc(Oc2nn([C@H]3C[C@@H](O)C3)c3ncnc(N)c23)c1,37.1
9,Nc1ncnc2c1c(Cc1cccc(F)c1)nn2[C@H]1C[C@H](F)C1,14.2
